Experimental findings from PMC3797739, “Identification of Semicarbazones, Thiosemicarbazones and Triazine Nitriles as Inhibitors of Leishmania mexicana Cysteine Protease CPB” (PLoS ONE, 2013) are described below.

The target in assay [1] is T1, bovine cathepsin B (BtCatB) (Bos taurus, UniProt P07688).
T1 construct: purchased Sigma-Aldrich Inc., St. Louis, MO, USA; host or cells: bovine spleen
The experiment in a line: BtCatB counter assay, fluorescence endpoint with Z-F-R-AMC substrate. The following applies: mean ± SD, three independent experiments, substrate Z-F-R-AMC 100 µM. Type of assay: biochemical. Here is the method: The activities of CPB2.8∆CTE and BtCatB were measured in a homogeneous fluorescence endpoint assay using Z-F-R-AMC as substrate, modified from published methods. The fluorophore AMC (7-amino-4-methylcoumarin) is released by active cysteine protease, and can be detected at 360 nm excitation and 465 nm emission. The assay was optimized for automated high throughput screening on a Biomek FX workstation (Beckman Coulter). All assays were carried out in black 384 well plates at room temperature (22°C). Each plate contained 24 controls in the 23rd and 24th rows of the plate, including 8 positive controls and 8 blanks (without enzyme) as well as 8 inhibitor controls. E-64 was used as standard inhibitor. […] Test compounds available as 10 mM stock solutions in DMSO were diluted further in DMSO, except for the last 1:10 step, which was done in H2O to lower the DMSO concentration in the assay. Final concentrations of the test compounds from 30 µM to 0.3 nM were used. For the L. mexicana CPB2.8∆CTE assay, 5 µl test compound or 5 µl DMSO in acetate buffer (10% DMSO) was added to each well of the microtiter plate. […] The reaction was stopped after 35 min incubation at room temperature by addition of 10 µl inhibitor E64 (f.c. 16.7 µM) and enzyme activity was measured with a SpectraFluorPlus (Tecan Inc., Durham, NC) plate reader using excitation at 360 nm with emission at 465 nm. […]
The percentage enzyme activity was calculated using the formula (V-B)/(C-B) x 100%, with V being the absorbance of the assay containing the test compound, B being the absorbance of the negative control (‘blank’) and C being the absorbance of the positive control. […]
The theoretical hit limit for a HTS primary screen can be calculated as MEAN + 3 x STDEV of inhibitions from diverse compounds. […]

Assay [2] addresses L. mexicana CPB2.8∆CTE (Leishmania mexicana, UniProt P36400). Put plainly: CPB2.8∆CTE fluorescence endpoint assay with Z-F-R-AMC substrate. It is filed as biochemical. Here is the method: (§1) The activities of CPB2.8∆CTE and BtCatB were measured in a homogeneous fluorescence endpoint assay using Z-F-R-AMC as substrate, modified from published methods. The fluorophore AMC (7-amino-4-methylcoumarin) is released by active cysteine protease, and can be detected at 360 nm excitation and 465 nm emission. The assay was optimized for automated high throughput screening on a Biomek FX workstation (Beckman Coulter). All assays were carried out in black 384 well plates at room temperature (22°C). Each plate contained 24 controls in the 23rd and 24th rows of the plate, including 8 positive controls and 8 blanks (without enzyme) as well as 8 inhibitor controls. E-64 was used as standard inhibitor. […] Test compounds available as 10 mM stock solutions in DMSO were diluted further in DMSO, except for the last 1:10 step, which was done in H2O to lower the DMSO concentration in the assay. Final concentrations of the test compounds from 30 µM to 0.3 nM were used. For the L. mexicana CPB2.8∆CTE assay, 5 µl test compound or 5 µl DMSO in acetate buffer (10% DMSO) was added to each well of the microtiter plate. Subsequently, 25 µl of a premix containing sodium acetate buffer (final concentration [f.c.] 100 mM), titriplex II (f.c. 1 mM) (Merck, Darmstadt, Germany), DTT (f.c. 10 mM) (Carl Roth GmbH, Karlsruhe, Germany), triton (f.c. 0.01%) (Merck, Darmstadt, Germany), BSA (f.c. 0.1 mg/ml) (PAA Laboratories GmbH, Pasching, Austria) and enzyme was added to each well, except the wells for the blanks, which include the premix without enzyme. After an incubation time of 10 min, the reaction was started by addition of substrate (20 µl Z-F-R-AMC; f.c. 20 µM). The reaction was stopped after 35 min incubation at room temperature by addition of 10 µl inhibitor E64 (f.c. 16.7 µM) and enzyme activity was measured with a SpectraFluorPlus (Tecan Inc., Durham, NC) plate reader using excitation at 360 nm with emission at 465 nm. The assay procedure for BtCatB was the same as for the CPB2.8∆CTE assay with the exceptions of the final concentration of the substrate Z-F-R-AMC (100 µM) and the stop of the assay using a stop buffer containing sodium acetate and sodium chlorine acetate (f.c. 41.7 mM each).
(§2) The percentage enzyme activity was calculated using the formula (V-B)/(C-B) x 100%, with V being the absorbance of the assay containing the test compound, B being the absorbance of the negative control (‘blank’) and C being the absorbance of the positive control. In primary screening, all compounds of the screening library were tested at 10 µM in double point measurements. Z´ factors, which describe the quality of an assay, were in the range of 0.85-0.99. The Z´ factor is defined in terms of four parameters: the means and standard deviations of both the positive (p) and negative (n) controls: Z´= 1-((3 x (STDEVp + STDEVn))/(MEANp - MEANn)).
(§3) The theoretical hit limit for a HTS primary screen can be calculated as MEAN + 3 x STDEV of inhibitions from diverse compounds. […] In our case, based on a preliminary screen of >3000 diverse compounds, the hit limit was determined between 12.8% and 22.9% inhibition. For practical reasons, screening hit limits are normally set above this limit, aiming at approximately 0.2-0.4% hits from a diverse library. Therefore, 50% inhibition at 10 µM compound concentration compared to the positive controls was considered a hit compound and were subjected to hit verification (IC50 determination from liquid compound stock) using CPB2.8∆CTE and BtCatB to get the activity profile of the compounds. Hit confirmation (IC50 determination from freshly dissolved solid compound stock) was performed for all compounds with an IC50 ≤ 30 µM on CPB2.8∆CTE. Compound concentrations used for IC50 determinations were as follows: 30 µM, 10 µM, 3 µM, 1 µM, 0.3 µM, 0.1 µM, 0.03 µM, 0.01 µM, 0.003 µM, 0.001 µM, and 0.0003 µM. […]

Assay [3] relates to L. mexicana CPB2.8∆CTE. The description is as above. The following applies: ratio of IC50 on CPB2.8∆CTE to IC50 on BtCatB. Type of assay: biochemical, Leishmania mexicana. Here is the method: as §1, §2, §3

Sequence of L. mexicana CPB2.8∆CTE (Leishmania mexicana, UniProt P36400) (P36400 126-343): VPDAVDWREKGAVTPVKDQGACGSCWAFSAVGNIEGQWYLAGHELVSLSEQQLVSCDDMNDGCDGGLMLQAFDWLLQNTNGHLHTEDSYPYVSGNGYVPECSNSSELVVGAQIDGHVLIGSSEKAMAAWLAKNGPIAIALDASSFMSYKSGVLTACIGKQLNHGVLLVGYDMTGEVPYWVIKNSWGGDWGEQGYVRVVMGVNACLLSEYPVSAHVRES

Take `NC(=O)N/N=c1\oc2ccccc2cc1-c1nc2ccccc2[nH]1` [CP229988, 3-[(1H-benzimidazol-2-yl)-2H-1-benzopyran-2-ylidene]-2-carbaldehyde semicarbazone]: in assay [1], the IC50 (commonly the concentration that gives 50% inhibition) is > 30000 nM. Further, in assay [2], the IC50 was 10 ± 3 nM and the Ki (usually the equilibrium dissociation constant of an inhibitor or competing ligand from its target) came out at 5 ± 2 nM. For the same molecule, the “selectivity ratio (CPB2.8∆CTE/BtCatB)” value in assay [3] is recorded as < 0.00033.
`NC(=S)NN=Cc1c(-c2ccccc2)[nH]c2ccccc12` [CP247128, 2-phenyl-1H-indole-3-carbaldehyde thiosemicarbazone] had an IC50 in assay [2] of 60 ± 10 nM.
On to `COc1ncccc1Nc1nc(C#N)nc(NC2CCCCC2)n1` [CP241026, 4-(cyclohexylamino)-6-[(2-methoxy-3-pyridinyl)amino]-1,3,5-triazine-2-carbonitrile], for which the IC50 in assay [1] was found to be 13800 ± 4500 nM; in assay [2], 1100 ± 150 nM. This molecule displayed a Ki in assay [2] of 570 ± 80 nM.
As for `CC(C)C[C@H](NC(=O)[C@H]1O[C@@H]1C(=O)O)C(=O)NCCCCNC(=N)N` (relative stereo) [Compound E-64, 1-[N-[(L-3-trans-carboxyoxirane-2-carbonyl)-L-leucyl]amino]-4-guanidinobutane, reference compound], the “inhibition of protease activity” value in assay [2] (final concentration 10 µM, standard inhibitor control of the CPB2.8∆CTE and BtCatB assays) was “complete inhibition”.
With `COc1ccc(-c2ccc(/C=N/NC(N)=S)o2)cc1` [CP247129, 5-(4-methoxy-phenyl)-2-furanyl-2-carbaldehyde thiosemicarbazone], the IC50 in assay [1] was > 30000 nM. For the same molecule, in assay [2], the IC50 worked out at 70 ± 40 nM and the Ki worked out at 40 ± 20 nM.
